Values quoted from earlier work in patent US20200277251A1, “NOVEL ANTIBACTERIAL COMPOUNDS AND METHODS OF MAKING AND USING SAME” (BROWN UNIVERSITY, priority 2017, published 2020).

Test system: LT
Details: purified autolysin; cited from earlier work

CC1=N[C@@H]2[C@@H](O)[C@H](O)[C@@H](CO)O[C@@H]2S1 [NAG-thiazoline]
binding to LT: weak binder
